This is an account of results in patent US6103700A, “Fluoro labelled anthracyclinone and anthracycline derivatives” (Pharmacia & Upjohn S.p.A., priority 1996, dated 2000).

One experiment addresses Aβ25-35 peptide (Homo sapiens, UniProt P05067). Description: Antifibrillogenic activity, thioflavine T (ThT) assay with Aβ25-35 peptide. Format: biochemical. Conditions: compound 30 μM, Aβ25-35 peptide 100 μM, 50 μM phosphate buffer pH 5, 25° C., 24 hours; ThT 47 μM; ex 420 nm, em 490 nm; less fluorescence = less amyloid; read-out: ThT fluorescence (% of control). As for the experimental part:
The compounds of the present invention are also endowed with antifibrillogenic activity. When Aβ peptides are incubated with the compounds, a reduction in the formation of amyloid fibrils is observed. The amount of amyloid that results from peptide aggregation can be evaluated using the thioflavine T (ThT) assay as reported in the literature by Naiki et al., Analytical Biochemistry 1989, vol. 177, p. 244 and by H. LeVine III, Protein Science 1993, vol.2, p. 404. Compounds are incubated at a concentration of 30 μM, in 50 μM phosphate buffer pH 5 at 25° C. during 24 hours, with 100 μM peptide. The incubated samples are then diluted with sodium citrate buffer pH 5 containing 47 μM ThT. Fluorescence was measured with excitation at 420 nm and emission at 490 nm in a Kontron fluorescence spectrophotometer and the values were averaged after subtracting the background fluorescence of ThT. The less the fluorescence the less the amount of amyloid formed during the incubation period.
The following data obtained with the Aβ25-35 peptide are reported as examples.

A further experiment has as its target Aβ25-35 fibrils (Homo sapiens, UniProt P05067). Briefly: Binding of anthracyclinones and anthracyclines to Aβ25-35 fibrils (fluorescent detection of bound compound). To be noted: 10% dimethylsulfoxide in distilled water, 60 minutes, room temperature, rectangular hyperbola (binding isotherm), read-out: EC50 (affinity of the test compounds for the Aβ fibrils). How it is done: Binding of anthracyclinones and anthracyclines to Aβ fibrils
Fibrils from Aβ25-35 peptide are suspended in a solution of 10% dimethylsulfoxide in distilled water containing the test compound at various concentrations and incubated at room temperature for 60 minutes. After incubation, the samples are centrifuged at 15000 g for 10 minutes at room temperature and the supernatant withdrawn. Fibril pellets are washed three times with 0.3 ml of 10% DMSO in distilled water, dissolved in ethanol and the bound compound is quantified by fluorescent detection. EC50 are then calculated using rectangular hyperbola (binding isotherm) equation and represents the affinity of the test compounds for the Aβ fibrils.

Another experiment has as its system Aβ1-40 fibrils. Description: Binding to Aβ1-40 fibrils (filtration, HPLC quantification of bound compound). To be noted: 3% dimethylsulfoxide in water, 15 minutes, room temperature, Hill equation. How it is done:
The precipitated fibrils are centrifuged, washed with distilled water, centrifuged again and resuspended in distilled water at a concentration of […]. The fibril suspension is sonocated for one minute and freezed at -20° C. in aliquots until use. […] The resulting suspension is incubated at room temperature for 15 minutes. After incubation, the suspension is loaded onto a Millipore ultrafree MC filter (0.22 μm pore retention) and centrifuged for 5 minutes at 4° C. […] The amount of bound compound is quantified by HPLC. The aspecific binding of the compounds to the filter is evaluated by processing samples of the compounds, as previously described, in the absence of fibrils. The amount of compound bound to the filter is subtracted from the total binding value obtained in the presence of fibrils. Binding parameters were estimated by computerised non-linear regression analysis according to the Hill equation. Data are expressed as nanomoles of compound bound per mg of peptide monomer (Bmax)

As for `COc1cccc2c1C(=O)c1c(O)c3c(c(O)c1C2=O)C[C@@](O)(C(=O)CO)C[C@@H]3O[C@H]1C[C@H](NC(=O)C(F)(F)F)[C@H](I)[C@H](C)O1` [Compound A1, N-trifluoroacetyl-4'-iododoxorubicin], at Aβ25-35 peptide, the remaining activity at 30 µM amounted to 20.6%. The same measure, in the same setting: the result for `COc1cccc2c1C(=O)c1c(O)c3c(c(O)c1C2=O)C[C@@](O)(C(=O)CN1CCN(C(=O)C(F)(F)F)CC1)C[C@@H]3O` [Compound A2, 14-(4-trifluoroacetylpiperazin-1-yl)-daunomycinone] reads 22.2%. By EC50 is commonly meant the concentration that produces a half-maximal response. Take `COc1cccc2c1C(=O)c1c(O)c3c(c(O)c1C2=O)C[C@@](O)(C(=O)CN1CCN(S(=O)(=O)C(F)(F)F)CC1)C[C@@H]3O` [Compound A3, 14-(4-trifluoromethanesulphonylpiperazin-1-yl)-daunomycinone]: on Aβ25-35 fibrils, the EC50 turned out to be 8.16 ± 1.32 µM. The remaining activity at 30 µM on Aβ25-35 peptide worked out at 23%.

In the case of `COc1cccc2c1C(=O)c1c(O)c3c(c(O)c1C2=O)C[C@@](O)(C(=O)CN1CCN(c2cccc(C(F)(F)F)c2)CC1)C[C@@H]3O` [Compound A4, 14-[4-(3-trifluoromethylphenyl)piperazin-1-yl]-daunomycinone], the remaining activity at 30 µM on Aβ25-35 peptide came out at 22.3%. For `CCN(CC(=O)[C@]1(O)Cc2c(O)c3c(c(O)c2[C@@H](O)C1)C(=O)c1c(OC)cccc1C3=O)Cc1cc(C(F)(F)F)cc(C(F)(F)F)c1` [Compound A5, 14-[N-ethyl-N-(3,5-bis-trifluoromethylphenyl)methyl]daunomycinone], in the experiment on Aβ1-40 fibrils, the “Bmax (nanomoles of compound bound per mg of peptide monomer)” value is given as 223.1 nmoles/mg Aβ1-40. For the same compound, the remaining activity at 30 µM at Aβ25-35 peptide was determined as 23.1%. Take `COc1cccc2c1C(=O)c1c(O)c3c(c(O)c1C2=O)C[C@@](O)(C(=O)CN(Cc1ccccc1)CC(F)(F)F)C[C@@H]3O` [Compound A6, 14-[N-benzyl-N-(2,2,2-trifluoroethyl)]amino-daunomycinone]: the remaining activity at 30 µM on Aβ25-35 peptide turned out to be 35%.

On to `COc1cccc2c1C(=O)c1c(O)c3c(c(O)c1C2=O)C[C@@](O)(C(=O)CN1CC=CCC1)C[C@@H]3O[C@H]1C[C@H](NC(=O)C(F)(F)F)[C@H](I)[C@H](C)O1` [Compound A7, 14-(1,2,3,6-tetrahydropyridin-1-yl)-4'-deoxy-4'-iodo-3'-N-trifluoroacetyl daunorubicin], for which the remaining activity at 30 µM at Aβ25-35 peptide came out at 33.2%.

For the compound `COc1cccc2c1C(=O)c1c(O)c3c(c(O)c1C2=O)C[C@@](O)(C(=O)CO)C[C@@H]3O[C@H]1C[C@H](N)[C@H](I)[C@H](C)O1` [IDOX, iododoxorubicin, reference compound], the EC50 at Aβ25-35 fibrils stood at 52 ± 10.7 µM. In the experiment on Aβ1-40 fibrils, the “Bmax (nanomoles of compound bound per mg of peptide monomer)” value is given as 122.2 nmoles/mg Aβ1-40. Moreover, the remaining activity at 30 µM on Aβ25-35 peptide is 41%.
